Reference: the supplement of paper PMC10132981, “Formate overflow drives toxic folate trapping in MTHFD1 inhibited cancer cells” (Nature Metabolism, 2023)

System: SW620
Test: cell viability relative to vehicle (resazurin, 96 h); higher = more viable
Experimental: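 SW620 WT or MTHFD2-/- cells were treated for 96 h with a compound dilution series (log10 M) in RPMI with normal or dialysed FBS. Viability was read by resazurin and is given as % of vehicle.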

CN(Cc1cnc2nc(N)nc(N)c2n1)c1ccc(C(=O)N[C@@H](CCC(=O)O)C(=O)O)cc1 [methotrexate]
Conditions	cell viability [%]
log10 compound concentration (M): -5, supplement / serum: Hypoxanthine + AICAr 10μM, base medium: RPMI + dialysed FBS	5.12
log10 compound concentration (M): -5, supplement / serum: Hypoxanthine + AICAr 30μM, base medium: RPMI + dialysed FBS	4.87
log10 compound concentration (M): -5, supplement / serum: Hypoxanthine + AICAr 50μM, base medium: RPMI + dialysed FBS	5.34
log10 compound concentration (M): -5, supplement / serum: Hypoxanthine + AICAr 100μM, base medium: RPMI + dialysed FBS	5.12
log10 compound concentration (M): -5, supplement / serum: Hypoxanthine, base medium: RPMI + dialysed FBS	4.67
log10 compound concentration (M): -5, supplement / serum: RPMI + Dialyzed FBS + 50μM Hypoxanthine, base medium: RPMI-1640	6.47
log10 compound concentration (M): -5, supplement / serum: RPMI + Dialyzed FBS, base medium: RPMI-1640	5.07
log10 compound concentration (M): -5, supplement / serum: RPMI + Normal FBS, base medium: RPMI-1640	19.1
log10 compound concentration (M): -5, supplement / serum: Vehicle, base medium: RPMI + dialysed FBS	4.01
log10 compound concentration (M): -5.47712, supplement / serum: Hypoxanthine + AICAr 10μM, base medium: RPMI + dialysed FBS	5.68
log10 compound concentration (M): -5.47712, supplement / serum: Hypoxanthine + AICAr 30μM, base medium: RPMI + dialysed FBS	4.86
log10 compound concentration (M): -5.47712, supplement / serum: Hypoxanthine + AICAr 50μM, base medium: RPMI + dialysed FBS	6.17
log10 compound concentration (M): -5.47712, supplement / serum: Hypoxanthine + AICAr 100μM, base medium: RPMI + dialysed FBS	5.44
log10 compound concentration (M): -5.47712, supplement / serum: Hypoxanthine, base medium: RPMI + dialysed FBS	5.19
log10 compound concentration (M): -5.47712, supplement / serum: RPMI + Dialyzed FBS + 50μM Hypoxanthine, base medium: RPMI-1640	7.16
log10 compound concentration (M): -5.47712, supplement / serum: RPMI + Dialyzed FBS, base medium: RPMI-1640	5.32
log10 compound concentration (M): -5.47712, supplement / serum: RPMI + Normal FBS, base medium: RPMI-1640	22.3
log10 compound concentration (M): -5.47712, supplement / serum: Vehicle, base medium: RPMI + dialysed FBS	3.96
log10 compound concentration (M): -5.95424, supplement / serum: Hypoxanthine + AICAr 10μM, base medium: RPMI + dialysed FBS	6.05
log10 compound concentration (M): -5.95424, supplement / serum: Hypoxanthine + AICAr 30μM, base medium: RPMI + dialysed FBS	4.88
log10 compound concentration (M): -5.95424, supplement / serum: Hypoxanthine + AICAr 50μM, base medium: RPMI + dialysed FBS	6.61
log10 compound concentration (M): -5.95424, supplement / serum: Hypoxanthine + AICAr 100μM, base medium: RPMI + dialysed FBS	6.46
log10 compound concentration (M): -5.95424, supplement / serum: Hypoxanthine, base medium: RPMI + dialysed FBS	4.87
log10 compound concentration (M): -5.95424, supplement / serum: RPMI + Dialyzed FBS + 50μM Hypoxanthine, base medium: RPMI-1640	7.47
log10 compound concentration (M): -5.95424, supplement / serum: RPMI + Dialyzed FBS, base medium: RPMI-1640	5.35
log10 compound concentration (M): -5.95424, supplement / serum: RPMI + Normal FBS, base medium: RPMI-1640	14.7
log10 compound concentration (M): -5.95424, supplement / serum: Vehicle, base medium: RPMI + dialysed FBS	4.17
log10 compound concentration (M): -6.43136, supplement / serum: Hypoxanthine + AICAr 10μM, base medium: RPMI + dialysed FBS	6.29
log10 compound concentration (M): -6.43136, supplement / serum: Hypoxanthine + AICAr 30μM, base medium: RPMI + dialysed FBS	5.47
log10 compound concentration (M): -6.43136, supplement / serum: Hypoxanthine + AICAr 50μM, base medium: RPMI + dialysed FBS	7.05
log10 compound concentration (M): -6.43136, supplement / serum: Hypoxanthine + AICAr 100μM, base medium: RPMI + dialysed FBS	6.81
log10 compound concentration (M): -6.43136, supplement / serum: Hypoxanthine, base medium: RPMI + dialysed FBS	5.56
log10 compound concentration (M): -6.43136, supplement / serum: RPMI + Dialyzed FBS + 50μM Hypoxanthine, base medium: RPMI-1640	7.77
log10 compound concentration (M): -6.43136, supplement / serum: RPMI + Dialyzed FBS, base medium: RPMI-1640	4.63
log10 compound concentration (M): -6.43136, supplement / serum: RPMI + Normal FBS, base medium: RPMI-1640	17
log10 compound concentration (M): -6.43136, supplement / serum: Vehicle, base medium: RPMI + dialysed FBS	4.16
log10 compound concentration (M): -6.90849, supplement / serum: Hypoxanthine + AICAr 10μM, base medium: RPMI + dialysed FBS	7.03
log10 compound concentration (M): -6.90849, supplement / serum: Hypoxanthine + AICAr 30μM, base medium: RPMI + dialysed FBS	5.61
log10 compound concentration (M): -6.90849, supplement / serum: Hypoxanthine + AICAr 50μM, base medium: RPMI + dialysed FBS	6.93
log10 compound concentration (M): -6.90849, supplement / serum: Hypoxanthine + AICAr 100μM, base medium: RPMI + dialysed FBS	6.51
log10 compound concentration (M): -6.90849, supplement / serum: Hypoxanthine, base medium: RPMI + dialysed FBS	5.78
log10 compound concentration (M): -6.90849, supplement / serum: RPMI + Dialyzed FBS + 50μM Hypoxanthine, base medium: RPMI-1640	8.66
log10 compound concentration (M): -6.90849, supplement / serum: RPMI + Dialyzed FBS, base medium: RPMI-1640	5.1
log10 compound concentration (M): -6.90849, supplement / serum: RPMI + Normal FBS, base medium: RPMI-1640	20.5
log10 compound concentration (M): -6.90849, supplement / serum: Vehicle, base medium: RPMI + dialysed FBS	4.6
log10 compound concentration (M): -7.38561, supplement / serum: Hypoxanthine + AICAr 10μM, base medium: RPMI + dialysed FBS	15.3
log10 compound concentration (M): -7.38561, supplement / serum: Hypoxanthine + AICAr 30μM, base medium: RPMI + dialysed FBS	7.88
log10 compound concentration (M): -7.38561, supplement / serum: Hypoxanthine + AICAr 50μM, base medium: RPMI + dialysed FBS	10.8
log10 compound concentration (M): -7.38561, supplement / serum: Hypoxanthine + AICAr 100μM, base medium: RPMI + dialysed FBS	9.102
log10 compound concentration (M): -7.38561, supplement / serum: Hypoxanthine, base medium: RPMI + dialysed FBS	14.7
log10 compound concentration (M): -7.38561, supplement / serum: RPMI + Dialyzed FBS + 50μM Hypoxanthine, base medium: RPMI-1640	24.7
log10 compound concentration (M): -7.38561, supplement / serum: RPMI + Dialyzed FBS, base medium: RPMI-1640	5.71
log10 compound concentration (M): -7.38561, supplement / serum: RPMI + Normal FBS, base medium: RPMI-1640	42.8
log10 compound concentration (M): -7.38561, supplement / serum: Vehicle, base medium: RPMI + dialysed FBS	4.77
log10 compound concentration (M): -7.86273, supplement / serum: Hypoxanthine + AICAr 10μM, base medium: RPMI + dialysed FBS	103
log10 compound concentration (M): -7.86273, supplement / serum: Hypoxanthine + AICAr 30μM, base medium: RPMI + dialysed FBS	75.9
log10 compound concentration (M): -7.86273, supplement / serum: Hypoxanthine + AICAr 50μM, base medium: RPMI + dialysed FBS	65.1
log10 compound concentration (M): -7.86273, supplement / serum: Hypoxanthine + AICAr 100μM, base medium: RPMI + dialysed FBS	39.1
log10 compound concentration (M): -7.86273, supplement / serum: Hypoxanthine, base medium: RPMI + dialysed FBS	92.6
log10 compound concentration (M): -7.86273, supplement / serum: RPMI + Dialyzed FBS + 50μM Hypoxanthine, base medium: RPMI-1640	85
log10 compound concentration (M): -7.86273, supplement / serum: RPMI + Dialyzed FBS, base medium: RPMI-1640	15.5
log10 compound concentration (M): -7.86273, supplement / serum: RPMI + Normal FBS, base medium: RPMI-1640	53.8
log10 compound concentration (M): -7.86273, supplement / serum: Vehicle, base medium: RPMI + dialysed FBS	10.7
log10 compound concentration (M): -8.33985, supplement / serum: Hypoxanthine + AICAr 10μM, base medium: RPMI + dialysed FBS	117
log10 compound concentration (M): -8.33985, supplement / serum: Hypoxanthine + AICAr 30μM, base medium: RPMI + dialysed FBS	93.6
log10 compound concentration (M): -8.33985, supplement / serum: Hypoxanthine + AICAr 50μM, base medium: RPMI + dialysed FBS	119.7
log10 compound concentration (M): -8.33985, supplement / serum: Hypoxanthine + AICAr 100μM, base medium: RPMI + dialysed FBS	92.9
log10 compound concentration (M): -8.33985, supplement / serum: Hypoxanthine, base medium: RPMI + dialysed FBS	99.3
log10 compound concentration (M): -8.33985, supplement / serum: RPMI + Dialyzed FBS + 50μM Hypoxanthine, base medium: RPMI-1640	99.18
log10 compound concentration (M): -8.33985, supplement / serum: RPMI + Dialyzed FBS, base medium: RPMI-1640	72.4
